# Where two headings read alike, the source gives them in different places. Peptide text beside a SMILES is read from it.
# Tests used:
# pancreatic lipase [1] = biological target: T1, pancreatic lipase (Sus scrofa, UniProt P00591); parameters: method as in PMID 36195236; details: peptides from sesame proteins ref 6; cited from earlier work
# T1 sequence (P00591 1-450): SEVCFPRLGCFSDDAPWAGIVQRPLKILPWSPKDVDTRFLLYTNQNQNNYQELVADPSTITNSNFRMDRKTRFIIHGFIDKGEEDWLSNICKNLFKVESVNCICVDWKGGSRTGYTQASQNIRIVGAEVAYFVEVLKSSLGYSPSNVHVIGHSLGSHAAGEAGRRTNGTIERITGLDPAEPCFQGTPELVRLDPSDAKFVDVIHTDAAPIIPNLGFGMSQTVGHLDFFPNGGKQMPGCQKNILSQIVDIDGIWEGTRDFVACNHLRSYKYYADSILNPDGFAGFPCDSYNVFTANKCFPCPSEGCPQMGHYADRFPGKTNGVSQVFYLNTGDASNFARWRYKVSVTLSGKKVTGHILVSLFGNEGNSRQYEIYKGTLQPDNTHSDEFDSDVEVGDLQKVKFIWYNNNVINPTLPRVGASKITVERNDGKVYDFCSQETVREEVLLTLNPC
# [2] = cited from earlier work
# pancreatic lipase [3] = biological target: T1, pancreatic lipase; assay: Inhibition kinetics of pancreatic lipase (Lineweaver–Burk); assay type: biochemical; details: read-out: equilibrium constant Ki
# Experimental: In total, a 25 μL sample solution of different concentrations, a 25 μL enzyme solution, and 50 μL substrates with different concentrations were added to the 96-well plate. The fluorescence value FLU was immediately measured at the excitation wavelength λex = 320 nm and emission wavelength λem = […], every 1 min within 20 min, and each group of experiments was repeated 3 times. The slope of the “fluorescence value-time” linear fitting curve represented the reaction rate of the enzyme in the presence of the sample. The Lineweaver–Burk double reciprocal diagram was drawn to analyze the inhibition type of synthetic peptides on enzymes.
# pancreatic lipase [4] = biological target: T1, pancreatic lipase; assay: Pancreatic lipase inhibitory activity (4-MUO fluorescence); assay type: biochemical; details: for inhibition at 500 µM: peptide concentration 0.5 mM, read-out: inhibitory percentage on pancreatic lipase; for IC50: read-out: IC50 against pancreatic lipase
# Experimental: The sample was diluted to an appropriate concentration with Tris HCl buffer. […] The fluorescence intensity was measured at excitation wavelength λex = 320 nm and emission wavelength λem = 450 nm. A buffer (25 μL) and enzyme solution (25 μL) were added for the control group. A sample solution (25 μL) and buffer (25 μL) were added for background group. Each group of experiments was repeated 3 times. The calculation formula of pancreatic lipase inhibition rate was as follows:(1) Lipase inhibition rate (%)=(1−FLUsample−FLUbackground/FLUnegative control−FLUnegative background)×100
# Among them, FLUsample was the light absorption value of the experimental group; FLUbackground was the light absorption value of the sample background group; FLUnegative control was the absorbance value of the control group without samples; and FLUnegative background was the absorbance value of the background of the control group.
# 3T3-L1 cells = test system: 3T3-L1 cells; parameters: method as in PMID 31569521; details: 600 µg/mL, 3T3-L1 cells ref 25; cited from earlier work
# [5] = test system: porcine pancreatic lipase; parameters: method as in PMID 31569521; details: 200 µg/mL ref 25; cited from earlier work
# pancreatic lipase [6] = biological target: T1, pancreatic lipase; assay: Fluorescence quenching assay of pancreatic lipase; details: binding constant Ka, Table S2
# 3T3-L1 preadipocytes = test system: 3T3-L1 preadipocytes; parameters: method as in doi:10.1016/j.jff.2018.05.066; details: 600 μg/mL, compared with the control ref 24; cited from earlier work
# HepG2 cells = assay: Fat accumulation (oil red O) and triglyceride content in oleic acid-induced HepG2; assay type: cell-based; details: orlistat positive control 2 mM, peptides at different concentrations
# Experimental: The HepG2 cells (Guangzhou Health Institute, Guangzhou, China) in logarithmic growth period were starved with serum-free medium for 12 h. Then, we replaced the medium with a complete medium containing 0.5 mM oleic acid and 0.4% FBS, and cultured this for 2–4 days (replacing the new oleic acid containing medium every day). The cells were divided into groups, and samples were added to each group as follows: Normal group: 1 mL of complete medium containing 0.4% serum; Model group: 1 mL of medium containing 0.5 mM oleic acid and 0.4% FBS; Positive control group: 1 mL of medium containing 2 mM orlistat, 0.5 mM oleic acid and 0.4% FBS; Sample treatment group: adding 1 mL of samples with different concentrations (high, medium, low) and medium containing 0.5 mM oleic acid and 0.4% FBS. […] Then, the paraformaldehyde solution was discarded, PBS was washed 3 times, and 1 mL of oil red O staining solution was added to each well. After dyeing at 37 °C for 1 h, the dye solution was discarded, washed with PBS 3 times, and 1 mL of PBS was added to prevent cell drying. […] According to the instructions of the triglyceride (TG) test box, the TG content of each well was measured using the GPO-PAP method, and the protein content was measured using the BCA method. The results were expressed as the triglyceride content per gram of protein (mmol/g protein).
molecule,measurement,setting,value
AGY,IC50,pancreatic lipase [1],1180 ± 179 µM
NIF,IC50,pancreatic lipase [1],1040 ± 179 µM
VVYP,effect on hypertriglyceridemia,[2],inhibitory effect on hypertriglyceridemia
CSCC[C@H](NC(=O)[C@H](CC(C)C)NC(=O)[C@H](CC(C)C)NC(=O)[C@@H](N)Cc1c[nH]c2ccccc12)C(=O)N[C@@H](Cc1c[nH]c2ccccc12)C(=O)N1CCC[C@H]1C(=O)N[C@@H](Cc1ccc(O)cc1)C(=O)N[C@@H](CCCCN)C(=O)O [WK-8] (H-WLLMWPYK-OH),Ki,pancreatic lipase [3],192 ± 25.3 µM
same,inhibition at 500 µM,pancreatic lipase [4],67.3 ± 1.1%
same,IC50,pancreatic lipase [4],52.8 µM
Leu-Leu-Val-Val-Try-Pro-Trp-Thr-Gln-Arg [PP1],decrease of accumulation of intracellular triacylglycerol,3T3-L1 cells,27.9%
same,inhibitory effect against porcine pancreatic lipase,[5],47.95%
"CC(C)C[C@H](NC(=O)[C@@H](N)CC(N)=O)C(=O)N[C@@H](Cc1ccc(O)cc1)C(=O)N[C@@H](Cc1ccc(O)cc1)C(=O)N[C@@H](CCCCN)C(=O)N[C@H](C(=O)N[C@H](C(=O)O)C(C)C)C(C)C [NV-7, NLYYKVV] (H-NLYYKVV-OH)",Ki,pancreatic lipase [3],77.3 ± 7.65 µM
same,inhibition at 500 µM,pancreatic lipase [4],95.42 ± 0.6%
same,Kd,pancreatic lipase [6]; 298 K,93.8 µM
same,Kd,pancreatic lipase [6]; 304 K,106 µM
same,Kd,pancreatic lipase [6]; 310 K,203 µM
CANPHELPNK,inhibition on triglyceride production,3T3-L1 preadipocytes,19.5%
QWM,IC50,pancreatic lipase [1],986 ± 170 µM
NPVWKRK,inhibition on triglyceride production,3T3-L1 preadipocytes,23.7%
CSCC[C@H](NC(=O)[C@H](CC(C)C)NC(=O)[C@H](CC(C)C)NC(=O)CNC(=O)[C@@H](N)CCC(=O)O)C(=O)N[C@@H](Cc1c[nH]c2ccccc12)C(=O)N1CCC[C@H]1C(=O)N[C@@H](Cc1ccc(O)cc1)C(=O)O [EY-8] (H-EGLLMWPY-OH),Ki,pancreatic lipase [3],578 ± 58.1 µM
same,inhibition at 500 µM,pancreatic lipase [4],80.47 ± 0.11%
same,IC50,pancreatic lipase [4],171 µM
CCCCCCCCCCC[C@@H](C[C@@H]1OC(=O)[C@H]1CCCCCC)OC(=O)[C@H](CC(C)C)NC=O [orlistat],"fat (oil) accumulation in HepG2 cells, oil red O staining",HepG2 cells,significantly reduce the oil accumulation in cells
"CC(C)[C@H](NC(=O)[C@H](Cc1ccc(O)cc1)NC(=O)[C@H](Cc1c[nH]c2ccccc12)NC(=O)[C@@H](N)Cc1c[nH]c2ccccc12)C(=O)N[C@@H](CCCCN)C(=O)O [WK-5, WWYVK] (H-WWYVK-OH)",Ki,pancreatic lipase [3],578 ± 25.7 µM
same,inhibition at 500 µM,pancreatic lipase [4],68.9 ± 1.8%
same,IC50,pancreatic lipase [4],246 µM

# — paper PMC9863159, “Isolation and Identification of Lipid-Lowering Peptides from Sacha Inchi Meal” (International Journal of Molecular Sciences, 2023)
